From article PMC9227536, “Prediction of Pharmacokinetics of IDP-73152 in Humans Using Physiologically-Based Pharmacokinetics” (Pharmaceutics, 2022)

Legend:
[1] = Blood partitioning (LC-MS/MS-based depletion method), rat; type: in vitro ADME; conditions: whole blood, rats blood, 0.3, 1, 3 μM, read-out: BP (blood-to-plasma concentration ratio)
Procedure: In this study, the partitioning of IDP-73152 in blood samples obtained from mice, rats, dogs, and humans was determined using the LC-MS/MS-based depletion method with slight modifications. DP-73152 was added to an aliquot (1 mL) of blank blood or plasma at a final concentration of 0.3, 1, or 3 μM. The mixture was incubated at 37 °C in a water bath for 60 min. After the incubation, the plasma was separated by centrifugation of the blood samples for 5 min at 10,000× g/4 °C and stored at -80 °C until analysis. The blood-to-plasma concentration ratio (BP) was calculated using the equation:(3) BP=[…], where […] is the concentration of the compound at the corresponding blood concentration in the plasma, and CPL is the concentration from the plasma sample separated from the incubated blood.

[2] = Metabolic stability in rat hepatocytes; type: in vitro ADME
Procedure: For the hepatocyte incubation study, rat hepatocytes were freshly prepared using the two-step collagenase perfusion method with slight modifications. After the isolation, cell viability during the preparation process was first determined by a trypan blue exclusion assay prior to the stability study. The preparation was considered adequate for subsequent studies if the viability was greater than 80%. When appropriate, the hepatocytes were resuspended in Williams' media E containing 10% fetal bovine serum, 1% penicillin-streptomycin, and 0.01% insulin-transferrin-selenium (i.e., 10 mg/mL insulin, 5.5 mg/mL transferrin, and 5 mg/mL selenium) at pH 7.4. […] Assuming first-order disappearance kinetics, the slope k of the logarithmically transformed IDP-73152 concentration in the sample versus time plot was determined by the linear regression analysis of the data. The total intrinsic clearance (CLint,mic, μL/min/mg protein for microsomal incubation study and CLint,hep, μL/min/million cells for hepatocytes incubation study) was then calculated using the following equations:(4) CLint, mic=k×Volume of incubation medium (μL)/Protein in incubation medium (mg) (5) CLint,hep=k×Volume of incubation (μL)/Number of cells in incubation (×10^6) The unbound intrinsic clearance, with respect to the whole liver ([…]), was then estimated for the two cases. […]

CC(C)(C)[C@H](NC(=O)[C@H](CC1CCCC1)CN(O)C=O)C(=O)N1CCC(NCc2cc(F)c(F)cc2F)CC1 [IDP-73152]
blood plasma ratio at 60 min [1]: 1.56 ± 0.37
hepatocyte CLint at 1 μM ([2]; freshly isolated hepatocytes in suspension, pH 7.4, rat hepatocytes 0.5 × 10^6 cells/mL, 1 μM, read-out: CL,int,hep): 27.7 ± 3.2 µL/min/1e6 cells
CLu,int,H ([2]; rats, scaled from rat hepatocytes): 6.82 ± 0.79 L/h
